Where two headings read alike, the source gives them in different places.
Experiment: Ocular tissue distribution and pharmacokinetics, 7.5 and 15 mg/kg oral, pigmented Dutch Belted rabbits (Example 7)
Assay type: in vivo
Procedure: For Group 1, two animals/time point were sacrificed via an overdose of sodium pentobarbital at approximately 1, 6, 12, 24, 96, 168, and 240 hours postdose. Blood (approximately 2 mL) was collected from all animals at sacrifice into tubes containing K2EDTA via exsanguination (cardiac puncture).
For Groups 2 through 4, blood (approximately 2 mL) was collected via a jugular vein using a syringe and needle and was transferred into tubes containing K2EDTA at approximately 12 hours after the a.m. dose on Day 15 from the two animals designated for sacrifice at approximately 240 hours after the a.m. dose on Day 15.
For Groups 2 through 4, two animals/group/time point were sacrificed via an overdose of sodium pentobarbital prior to dosing on Day 15 and at approximately 1, 6, 24, 96, 168, and 240 hours after the a.m. dose on Day 15. Blood (approximately 2 mL) was collected from all animals at sacrifice into tubes containing K2EDTA via exsanguination (cardiac puncture).
Blood was maintained on wet ice, in chilled cryoracks, or at approximately 5° C. prior to centrifugation to obtain plasma. Centrifugation began within 1 hour of collection (Deviation). Plasma was placed into 96-well tubes with barcode labels. Plasma was maintained on dry ice prior to storage at approximately −70° C.
At the time of sacrifice, both eyes were enucleated, and the following tissues were collected. Each eye was flash-frozen in liquid nitrogen for 15 to 20 seconds. The enucleated eye was placed on dry ice or stored at approximately −70° C. for at least 2 hours. Within approximately 3 days, the frozen matrices were collected as right and left eyes for each matrix into the specific tube type listed.
At the time of frozen collection, the ocular tissues were rinsed with saline and blotted dry (as appropriate), weighed, and placed on dry ice. All ocular tissues were collected as single samples.

[1] = Dutch Belted, rabbit, Retina (OU), male DB rabbits, Group 1, Day 1, 7.5 mg/kg single oral dose
[2] = Dutch Belted, rabbit, plasma, male DB rabbits, Group 1, Day 1, 7.5 mg/kg single oral dose
[3] = ICB (OU), male DB rabbits, Group 1, Day 1, […] single oral dose
[4] = ICB (OU), male DB rabbits, Group 2, Day 15, […] BID oral (15 mg/kg/day)
[5] = ICB (OU), male DB rabbits, Group 3, Day 15, 15 mg/kg/dose BID oral (30 mg/kg/day)
[6] = Retina (OU), male DB rabbits, Group 1, Day 1, […] single oral dose
[7] = Retina (OU), male DB rabbits, Group 2, Day 15, […] BID oral (15 mg/kg/day)
[8] = Retina (OU), male DB rabbits, Group 3, Day 15, 15 mg/kg/dose BID oral (30 mg/kg/day)
[9] = male, Dutch Belted, rabbit, choroid-retinal pigment epithelium (choroid-RPE), po, 15 mg/kg, Choroid-RPE (OU), male DB rabbits, Group 3, Day 15, 15 mg/kg/dose BID oral (30 mg/kg/day)
[10] = male, Dutch Belted, rabbit, plasma, po, 15 mg/kg, plasma, male DB rabbits, Group 3, Day 15, 15 mg/kg/dose BID oral (30 mg/kg/day)
[11] = male, Dutch Belted, rabbit, plasma, po, […], plasma, male DB rabbits, Group 1, Day 1, […] single oral dose
[12] = male, Dutch Belted, rabbit, plasma, po, […], plasma, male DB rabbits, Group 2, Day 15, […] BID oral (15 mg/kg/day)
[13] = plasma, male DB rabbits, Group 1, Day 1, […] single oral dose
[14] = plasma, male DB rabbits, Group 2, Day 15, […] BID oral (15 mg/kg/day)
[15] = plasma, male DB rabbits, Group 3, Day 15, 15 mg/kg/dose BID oral (30 mg/kg/day)

CC(=O)c1nn(CC(=O)N2C[C@H](F)C[C@H]2C(=O)Nc2cccc(Br)n2)c2ccc(-c3cnc(C)nc3)cc12 [Compound 1, (2S,4R)-1-(2-(3-Acetyl-5-(2-methylpyrimidin-5-yl)-1H-indazol-1-yl)acetyl)-N-(6-bromopyridin-2-yl)-4-fluoropyrrolidine-2-carboxamide]
MRT last [1]: 2.7 h
Tmax [1]: 1 h
Tmax (Dutch Belted, rabbit, Retina (OU), male DB rabbits, Group 3, Day 15, 15 mg/kg/dose BID oral (30 mg/kg/day)): 1 h
MRT last [2]: 2.67 h
Tmax [2]: 1 h
AUC(0-inf) (Dutch Belted, rabbit, plasma, male DB rabbits, Group 1, Day 1, 7.5 mg/kg single oral dose, read-out: AUC0-inf): 1590 ng·h/mL
Tmax (Dutch Belted, rabbit, plasma, male DB rabbits, Group 3, Day 15, 15 mg/kg/dose BID oral (30 mg/kg/day)): 1 h
AUC0-12 [3]: 2560 ng·h/g
AUC(0-24) [3]: 3460 ng·h/g
AUC(0-t) [3]: 3460 ng·h/g
Ctrough [3]: 119 ng/g
DN AUC0-12 [3]: 341 (h*ng/g)/(mg/kg/dose)
DN AUC0-24 [3]: 462 (h*ng/g)/(mg/kg/day)
DN Cmax [3]: 57.9 (ng/g)/(mg/kg/day)
AUC0-12 [4]: 7860 ng·h/g
AUC(0-24) [4]: 11900 ng·h/g
AUC(0-t) [4]: 11900 ng·h/g
Ctrough [4]: 484 ng/g
DN AUC0-12 [4]: 1050 (h*ng/g)/(mg/kg/dose)
DN AUC0-24 [4]: 1580 (h*ng/g)/(mg/kg/day)
DN Cmax [4]: 126 (ng/g)/(mg/kg/day)
AUC0-12 [5]: 13900 ng·h/g
AUC(0-24) [5]: 21300 ng·h/g
AUC(0-t) [5]: 21300 ng·h/g
Ctrough [5]: 780 ng/g
DN AUC0-12 [5]: 925 (h*ng/g)/(mg/kg/dose)
DN AUC0-24 [5]: 1420 (h*ng/g)/(mg/kg/day)
DN Cmax [5]: 136 (ng/g)/(mg/kg/day)
AUC0-12 [6]: 765 ng·h/g
AUC0-240 [6]: 864 ng·h/g
AUC(0-24) [6]: 864 ng·h/g
AUC(0-t) [6]: 765 ng·h/g
Ctrough [6]: 16.5 ng/g
DN AUC0-12 [6]: 102 (h*ng/g)/(mg/kg/dose)
DN AUC0-24 [6]: 115 (h*ng/g)/(mg/kg/day)
DN Cmax [6]: 25.1 (ng/g)/(mg/kg/day)
AUC0-12 [7]: 1710 ng·h/g
AUC0-240 [7]: 6070 ng·h/g
AUC(0-24) [7]: 2450 ng·h/g
AUC(0-t) [7]: 6070 ng·h/g
Ctrough [7]: 80.0 ng/g
DN AUC0-12 [7]: 227 (h*ng/g)/(mg/kg/dose)
DN AUC0-24 [7]: 327 (h*ng/g)/(mg/kg/day)
DN Cmax [7]: 40.8 (ng/g)/(mg/kg/day)
AUC0-12 [8]: 11500 ng·h/g
AUC0-240 [8]: 16100 ng·h/g
AUC(0-24) [8]: 6460 ng·h/g
AUC(0-t) [8]: 16100 ng·h/g
Ctrough [8]: 123 ng/g
DN AUC0-12 [8]: 325 (h*ng/g)/(mg/kg/dose)
DN AUC0-24 [8]: 430 (h*ng/g)/(mg/kg/day)
DN Cmax [8]: 85.7 (ng/g)/(mg/kg/day)
Cmax (male, Dutch Belted, rabbit, choroid-RPE (choroid-retinal pigment epithelium), po, […], Choroid-RPE (OU), male DB rabbits, Group 1, Day 1, […] single oral dose): 726 ng/g
Cmax [9]: 3970 ng/g
half-life [9]: 4570 min
half-life (male, Dutch Belted, rabbit, choroid-retinal pigment epithelium (choroid-RPE), po, […], Choroid-RPE (OU), male DB rabbits, Group 1, Day 1, […] single oral dose): 3530 min
Cmax (male, Dutch Belted, rabbit, choroid-retinal pigment epithelium (choroid-RPE), po, […], Choroid-RPE (OU), male DB rabbits, Group 2, Day 15, […] BID oral (15 mg/kg/day)): 2000 ng/g
Cmax (male, Dutch Belted, rabbit, iris-ciliary body (ICB), po, 15 mg/kg, ICB (OU), male DB rabbits, Group 3, Day 15, 15 mg/kg/dose BID oral (30 mg/kg/day)): 2050 ng/g
Cmax (male, Dutch Belted, rabbit, iris-ciliary body (ICB), po, […], ICB (OU), male DB rabbits, Group 1, Day 1, […] single oral dose): 435 ng/g
Cmax (male, Dutch Belted, rabbit, iris-ciliary body (ICB), po, […], ICB (OU), male DB rabbits, Group 2, Day 15, […] BID oral (15 mg/kg/day)): 943 ng/g
Cmax [10]: 910 ng/mL
half-life [10]: 299 min
AUC(0-t) (male, Dutch Belted, rabbit, plasma, po, 15 mg/kg, plasma, male DB rabbits, Group 3, Day 15, 15 mg/kg/dose BID oral (30 mg/kg/day), read-out: AUC0-12): 3620 ng·h/mL
AUC(0-t) (male, Dutch Belted, rabbit, plasma, po, 15 mg/kg, plasma, male DB rabbits, Group 3, Day 15, 15 mg/kg/dose BID oral (30 mg/kg/day), read-out: AUC0-24): 4010 ng·h/mL
AUC(0-t) (male, Dutch Belted, rabbit, plasma, po, 15 mg/kg, plasma, male DB rabbits, Group 3, Day 15, 15 mg/kg/dose BID oral (30 mg/kg/day), read-out: AUC0-240): 4390 ng·h/mL
AUC(0-t) (male, Dutch Belted, rabbit, plasma, po, 15 mg/kg, plasma, male DB rabbits, Group 3, Day 15, 15 mg/kg/dose BID oral (30 mg/kg/day), read-out: AUC0-t): 4010 ng·h/mL
Cmax [11]: 423 ng/mL
half-life [11]: 361 min
AUC(0-t) (male, Dutch Belted, rabbit, plasma, po, […], plasma, male DB rabbits, Group 1, Day 1, […] single oral dose, read-out: AUC0-12): 1450 ng·h/mL
AUC(0-t) (male, Dutch Belted, rabbit, plasma, po, […], plasma, male DB rabbits, Group 1, Day 1, […] single oral dose, read-out: AUC0-24): 1560 ng·h/mL
AUC(0-t) (male, Dutch Belted, rabbit, plasma, po, […], plasma, male DB rabbits, Group 1, Day 1, […] single oral dose, read-out: AUC0-240): 1680 ng·h/mL
AUC(0-t) (male, Dutch Belted, rabbit, plasma, po, […], plasma, male DB rabbits, Group 1, Day 1, […] single oral dose, read-out: AUC0-t): 1560 ng·h/mL
Cmax [12]: 440 ng/mL
half-life [12]: 293 min
AUC(0-t) (male, Dutch Belted, rabbit, plasma, po, […], plasma, male DB rabbits, Group 2, Day 15, […] BID oral (15 mg/kg/day), read-out: AUC0-12): 1910 ng·h/mL
AUC(0-t) (male, Dutch Belted, rabbit, plasma, po, […], plasma, male DB rabbits, Group 2, Day 15, […] BID oral (15 mg/kg/day), read-out: AUC0-24): 2130 ng·h/mL
AUC(0-t) (male, Dutch Belted, rabbit, plasma, po, […], plasma, male DB rabbits, Group 2, Day 15, […] BID oral (15 mg/kg/day), read-out: AUC0-240): 2370 ng·h/mL
AUC(0-t) (male, Dutch Belted, rabbit, plasma, po, […], plasma, male DB rabbits, Group 2, Day 15, […] BID oral (15 mg/kg/day), read-out: AUC0-t): 2130 ng·h/mL
concentration at 6 h (male, Dutch Belted, rabbit, retina, oral, […] BID, DB rabbits, Day 15, […] BID, read-out: Mean Retina Concentration): 97.9 ng/g
concentration at 24 h (male, Dutch Belted, rabbit, retina, oral, […] BID, DB rabbits, Day 15, […] BID, 24 hr, read-out: Mean Retina Concentration): 44.3 ng/g
concentration at 96 h (male, Dutch Belted, rabbit, retina, oral, […] BID, DB rabbits, Day 15, […] BID, 96 hr, read-out: Mean Retina Concentration): 13.9 ng/g
concentration at 168 h (male, Dutch Belted, rabbit, retina, oral, […] BID, DB rabbits, Day 15, […] BID, 168 hr, read-out: Mean Retina Concentration): 10.7 ng/g
concentration at 240 h (male, Dutch Belted, rabbit, retina, oral, […] BID, DB rabbits, Day 15, […] BID, 240 hr, read-out: Mean Retina Concentration): 7.18 ng/g
concentration at 6 h (male, Dutch Belted, rabbit, retina, oral, […], DB rabbits, Day 1, […] single dose, read-out: Mean Retina Concentration): 27.5 ng/g
concentration at 12 h (male, Dutch Belted, rabbit, retina, oral, […], DB rabbits, Day 1, […] single dose, 12 hr, read-out: Mean Retina Concentration): 16.5 ng/g
Cmax (male, Dutch Belted, rabbit, retina, po, 15 mg/kg, Retina (OU), male DB rabbits, Group 3, Day 15, 15 mg/kg/dose BID oral (30 mg/kg/day)): 1290 ng/g
Cmax (male, Dutch Belted, rabbit, retina, po, […], Retina (OU), male DB rabbits, Group 1, Day 1, […] single oral dose): 188 ng/g
Cmax (male, Dutch Belted, rabbit, retina, po, […], Retina (OU), male DB rabbits, Group 2, Day 15, […] BID oral (15 mg/kg/day)): 306 ng/g
Ctrough [13]: 14.8 ng/mL
DN AUC0-12 [13]: 194 (h*ng/mL)/(mg/kg/dose)
DN AUC0-24 [13]: 208 (h*ng/mL)/(mg/kg/day)
DN Cmax [13]: 56.4 (ng/mL)/(mg/kg/day)
Ctrough [14]: 29.6 ng/mL
DN AUC0-12 [14]: 255 (h*ng/mL)/(mg/kg/dose)
DN AUC0-24 [14]: 284 (h*ng/mL)/(mg/kg/day)
DN Cmax [14]: 58.6 (ng/mL)/(mg/kg/day)
Ctrough [15]: 54.3 ng/mL
DN AUC0-12 [15]: 242 (h*ng/mL)/(mg/kg/dose)
DN AUC0-24 [15]: 267 (h*ng/mL)/(mg/kg/day)
DN Cmax [15]: 60.7 (ng/mL)/(mg/kg/day)
Tolerability, clinical observations (rabbits, single oral […] and BID ≥15 mg/kg/day): well tolerated
